Source: the supplement of paper PMC11061612

What was measured:
Experiment in all cases: Bliss excess, mean over the matrix (fraction); higher = more synergy
ACHN (Kidney Carcinoma) = tested on: ACHN (Kidney Carcinoma)
Procedure, shortened: (§1)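 Bliss excess equals the observed combination effect minus the expected value EA + EB − EA·EB, where EA and EB are the effects of each agent alone. Combination Emax is the second-highest inhibition within the matrix. Inhibition was scaled from CellTiter-Glo 2.0 luminescence, with 0 set by vehicle wells and 1 by blank wells, after 72 hours of two-drug dosing of cells plated in 1536-well plates.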

[1] = tested on: AMO-1 (Plasma Cell Myeloma)
Procedure, shortened: as §1

[2] = tested on: C-4-I (Cervical Carcinoma)
Procedure, shortened: as §1

[3] = tested on: Caov-4 (Ovarian Carcinoma)
Procedure, shortened: as §1

D-263MG (Glioblastoma) = tested on: D-263MG (Glioblastoma)
Procedure, shortened: as §1

[4] = tested on: EoL-1-cell (Acute Myeloid Leukemia)
Procedure, shortened: as §1

[5] = tested on: HSC-4 (Oral Cavity Carcinoma)
Procedure, shortened: as §1

[6] = tested on: Hs-766T (Pancreatic Carcinoma)
Procedure, shortened: as §1

[7] = tested on: LU-65 (Non-Small Cell Lung Carcinoma)
Procedure, shortened: as §1

[8] = tested on: MLMA (Other Blood Carcinomas)
Procedure, shortened: as §1

[9] = tested on: NCI-H1915 (Non-Small Cell Lung Carcinoma)
Procedure, shortened: as §1

[10] = tested on: NEC8 (Other Solid Carcinomas)
Procedure, shortened: as §1

[11] = tested on: NUGC-3 (Gastric Carcinoma)
Procedure, shortened: as §1

[12] = tested on: OSC-20 (Oral Cavity Carcinoma)
Procedure, shortened: as §1

[13] = tested on: OVCAR-4 (Ovarian Carcinoma)
Procedure, shortened: as §1

[14] = tested on: PANC-04-03 (Pancreatic Carcinoma)
Procedure, shortened: as §1

[15] = tested on: SCC-15 (Oral Cavity Carcinoma)
Procedure, shortened: as §1

[16] = tested on: TE-1 (Esophageal Squamous Cell Carcinoma)
Procedure, shortened: as §1

[17] = tested on: VA-ES-BJ (Other Solid Carcinomas)
Procedure, shortened: as §1

YH-13 (Glioblastoma) = tested on: YH-13 (Glioblastoma)
Procedure, shortened: as §1

CN(C)CCCOc1ccc(-c2ccc3ncc4c(c3c2)n(C2CCOCC2)c(=O)n4C)cn1 [AZD0156] + C=CCn1c(=O)c2cnc(Nc3ccc(N4CCN(C)CC4)cc3)nc2n1-c1cccc(C(C)(C)O)n1 [AZD1775] (first compound max 1 µM, partner max 1 µM)
Bliss excess (ACHN (Kidney Carcinoma)): 0.022
Bliss excess [1]: 0.011
Bliss excess [2]: -0.0175
Bliss excess [3]: 0.0155
Bliss excess (D-263MG (Glioblastoma)): -0.039
Bliss excess [4]: 0.0416
Bliss excess [5]: -0.0418
Bliss excess [6]: -0.0232
Bliss excess [7]: -0.0032
Bliss excess [8]: -0.0081
Bliss excess [9]: -0.0572
Bliss excess [10]: 0.0183
Bliss excess [11]: -0.0369
Bliss excess [12]: -0.0443
Bliss excess [13]: -0.0368
Bliss excess [14]: -0.0836
Bliss excess [15]: -0.0799
Bliss excess [16]: -0.0167
Bliss excess [17]: -0.0235
Bliss excess (YH-13 (Glioblastoma)): -0.0238

CC1(C)CCC(CN2CCN(c3ccc(C(=O)NS(=O)(=O)c4ccc(NCC5CCOCC5)c([N+](=O)[O-])c4)c(Oc4cnc5[nH]ccc5c4)c3)CC2)=C(c2ccc(Cl)cc2)C1 [Venetoclax] + CCN(CCO)CCCOc1ccc2c(Nc3cc(CC(=O)Nc4cccc(F)c4)[nH]n3)ncnc2c1 [AZD2811] (first compound max 1 µM, 7x7, partner max 1 µM)
Bliss excess (ACHN (Kidney Carcinoma)): -0.0204
Bliss excess [1]: 0.0249
Bliss excess [2]: 0.0484
Bliss excess [3]: -0.0091
Bliss excess (D-263MG (Glioblastoma)): 0.0431
Bliss excess [4]: 0.0108
Bliss excess [5]: -0.0694
Bliss excess [6]: -0.0372
Bliss excess [7]: -0.0556
Bliss excess [8]: -0.0633
Bliss excess [9]: 0.0163
Bliss excess [10]: -0.007
Bliss excess [11]: 0.0083
Bliss excess [12]: -0.0372
Bliss excess [13]: 0.0264
Bliss excess [14]: -0.0565
Bliss excess [15]: -0.0051
Bliss excess [16]: 0.0056
Bliss excess [17]: 0.0108
Bliss excess (YH-13 (Glioblastoma)): -0.0428

CC(=O)c1c(C)c2cnc(Nc3ccc(N4CCNCC4)cn3)nc2n(C2CCCC2)c1=O [Palbociclib] + Cc1c2c(nn1C)CSCc1cc(n(C)n1)CSc1cc(c3ccccc3c1)OCCCc1c(C(=O)O)n(C)c3c-2c(Cl)ccc13 [AZD5991] (first compound max 10 µM, 7x7, partner max 1 µM)
Bliss excess (ACHN (Kidney Carcinoma)): -0.0106
Bliss excess [1]: -0.0375
Bliss excess [2]: -0.115
Bliss excess [3]: -0.0133
Bliss excess (D-263MG (Glioblastoma)): -0.0135
Bliss excess [4]: 0.0132
Bliss excess [5]: -0.0729
Bliss excess [6]: -0.067
Bliss excess [7]: -0.0692
Bliss excess [8]: -0.0442
Bliss excess [9]: -0.0526
Bliss excess [10]: 0.0111
Bliss excess [11]: -0.134
Bliss excess [12]: -0.0337
Bliss excess [13]: -0.0337
Bliss excess [14]: -0.0464
Bliss excess [15]: -0.044
Bliss excess [16]: -0.0182
Bliss excess [17]: -0.0101
Bliss excess (YH-13 (Glioblastoma)): -0.003

C[C@@H]1COCCN1c1cc(C2([S@](C)(=N)=O)CC2)nc(-c2ccnc3[nH]ccc23)n1 [AZD6738] + O=C(c1cc(Cc2n[nH]c(=O)c3ccccc23)ccc1F)N1CCN(C(=O)C2CC2)CC1 [Olaparib] (first compound max 10 µM, 7x7, partner max 10 µM)
Bliss excess (ACHN (Kidney Carcinoma)): -0.0791
Bliss excess [1]: -0.0316
Bliss excess [2]: -0.0144
Bliss excess [3]: -0.125
Bliss excess (D-263MG (Glioblastoma)): 0.0604
Bliss excess [4]: 0.0073
Bliss excess [5]: -0.0172
Bliss excess [6]: -0.0039
Bliss excess [7]: 0.0026
Bliss excess [8]: -0.15
Bliss excess [9]: -0.0182
Bliss excess [10]: 0.0254
Bliss excess [11]: -0.0296
Bliss excess [12]: 0.0171
Bliss excess [13]: 0.0035
Bliss excess [14]: 0.0066
Bliss excess [15]: 0.0011
Bliss excess [16]: -0.0461
Bliss excess [17]: -0.0692
Bliss excess (YH-13 (Glioblastoma)): 0.0254

NC1(C(=O)N[C@@H](CCO)c2ccc(Cl)cc2)CCN(c2ncnc3[nH]ccc23)CC1 [Capivasertib] + COc1nnc2ccc(N3CCC(c4ccc(OCCN5CCN(C)C(=O)[C@H]5C)cc4)CC3)nn12 [AZD5153] (first compound max 10 µM, 7x7, partner max 1 µM)
Bliss excess (ACHN (Kidney Carcinoma)): -0.0094
Bliss excess [1]: -0.0336
Bliss excess [2]: 0.046
Bliss excess [3]: -0.0146
Bliss excess (D-263MG (Glioblastoma)): 0.0459
Bliss excess [4]: -0.0442
Bliss excess [5]: 0.0211
Bliss excess [6]: 0.0126
Bliss excess [7]: -0.152
Bliss excess [8]: -0.0177
Bliss excess [9]: 0.0289
Bliss excess [10]: 0.0363
Bliss excess [11]: 0.0564
Bliss excess [12]: 0.0093
Bliss excess [13]: -0.0387
Bliss excess [14]: -0.0242
Bliss excess [15]: 0.028
Bliss excess [16]: -0.0169
Bliss excess [17]: 0.0414
Bliss excess (YH-13 (Glioblastoma)): 0.0553

NC1(C(=O)N[C@@H](CCO)c2ccc(Cl)cc2)CCN(c2ncnc3[nH]ccc23)CC1 [Capivasertib] + Cn1cnc2c(F)c(Nc3ccc(Br)cc3Cl)c(C(=O)NOCCO)cc21 [Selumetinib] (first compound max 10 µM, 7x7, partner max 10 µM)
Bliss excess (ACHN (Kidney Carcinoma)): 0.0379
Bliss excess [1]: 0.0678
Bliss excess [2]: 0.0609
Bliss excess [3]: -0.0293
Bliss excess (D-263MG (Glioblastoma)): 0.0028
Bliss excess [4]: 0.077
Bliss excess [5]: -0.0133
Bliss excess [6]: -0.0045
Bliss excess [7]: -0.0119
Bliss excess [8]: 0.0032
Bliss excess [9]: 0.0366
Bliss excess [10]: 0.0013
Bliss excess [11]: -0.0007
Bliss excess [12]: 0.0384
Bliss excess [13]: -0.0254
Bliss excess [14]: 0.0247
Bliss excess [15]: -0.0334
Bliss excess [16]: 0.0059
Bliss excess [17]: 0.0015
Bliss excess (YH-13 (Glioblastoma)): 0.0235

COc1cccc2c1C(=O)c1c(O)c3c(c(O)c1C2=O)C[C@@](O)(C(=O)CO)C[C@@H]3O[C@H]1C[C@H](N)[C@H](O)[C@H](C)O1 [Doxorubicin] + Cc1cc2ncnn2cc1Nc1ncc2c(n1)n(C1CCOCC1)c(=O)n2C [AZD7648] (first compound max 1 µM, 7x7, partner max 10 µM)
Bliss excess (ACHN (Kidney Carcinoma)): 0.068
Bliss excess [1]: 0.0818
Bliss excess [2]: 0.1
Bliss excess [3]: 0.056
Bliss excess (D-263MG (Glioblastoma)): 0.032
Bliss excess [4]: 0.155
Bliss excess [5]: 0.0047
Bliss excess [6]: -0.012
Bliss excess [7]: 0.0418
Bliss excess [8]: -0.0214
Bliss excess [9]: 0.0154
Bliss excess [10]: 0.0952
Bliss excess [11]: 0.0285
Bliss excess [12]: 0.0204
Bliss excess [13]: -0.0056
Bliss excess [14]: -0.0394
Bliss excess [15]: 0.0028
Bliss excess [16]: -0.022
Bliss excess [17]: 0.0383
Bliss excess (YH-13 (Glioblastoma)): 0.0443
